Assays:
Assay in all cases: KINOMEscan binding assay
CSNK1D = molecular target: T1, CSNK1D (Homo sapiens, UniProt P48730); details: read-out: % Retention on Solid Support
T1 construct: purchased DiscoveRx KINOMEscan
Summary of the method: (§1)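 Selectivity profiling used a competition-binding format directed at the kinase active site. The inhibitor was screened at 1 and 10 µM over a panel exceeding 400 kinases.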

EPHA8 = molecular target: T2, EPHA8 (Homo sapiens, UniProt P29322); details: read-out: % Retention on Solid Support
T2 construct: purchased DiscoveRx KINOMEscan
Summary of the method: as §1

CASK = molecular target: T3, CASK (Homo sapiens, UniProt O14936); details: 1 µM i-CDK9; read-out: % Retention on Solid Support
T3 construct: purchased DiscoveRx KINOMEscan
Summary of the method: as §1

CDK4-cyclinD1 = molecular target: T4, CDK4-cyclinD1 (Homo sapiens, UniProt P11802); details: 1 µM i-CDK9; read-out: % Retention on Solid Support
T4 construct: purchased DiscoveRx KINOMEscan
Summary of the method: as §1

TSSK1B = molecular target: T5, TSSK1B (Homo sapiens, UniProt Q9BXA7); details: read-out: % Retention on Solid Support
T5 construct: purchased DiscoveRx KINOMEscan
Summary of the method: as §1

LATS2 = molecular target: T6, LATS2 (Homo sapiens, UniProt Q9NRM7)
T6 construct: purchased DiscoveRx KINOMEscan
Summary of the method: as §1

MET = molecular target: T7, MET (Homo sapiens, UniProt P08581)
T7 construct: purchased DiscoveRx KINOMEscan
Summary of the method: as §1

DMPK = molecular target: T8, DMPK (Homo sapiens, UniProt Q09013); details: read-out: % Retention on Solid Support
T8 construct: purchased DiscoveRx KINOMEscan
Summary of the method: as §1

MUSK = molecular target: T9, MUSK (Homo sapiens, UniProt O15146); details: read-out: % Retention on Solid Support
T9 construct: purchased DiscoveRx KINOMEscan
Summary of the method: as §1

PIK3CA(H1047L) = molecular target: T10, PIK3CA(H1047L) (Homo sapiens, UniProt P42336, H1047L); details: read-out: % Retention on Solid Support
T10 construct: purchased DiscoveRx KINOMEscan
Summary of the method: as §1

DAPK3 = molecular target: T11, DAPK3 (Homo sapiens, UniProt O43293); details: read-out: % Retention on Solid Support
T11 construct: purchased DiscoveRx KINOMEscan
Summary of the method: as §1

JNK2 = molecular target: T12, JNK2 (Homo sapiens, UniProt P45984)
T12 construct: purchased DiscoveRx KINOMEscan
Summary of the method: as §1

ROS1 = molecular target: T13, ROS1 (Homo sapiens, UniProt P08922); details: read-out: % Retention on Solid Support
T13 construct: purchased DiscoveRx KINOMEscan
Summary of the method: as §1

MAP4K4 = molecular target: T14, MAP4K4 (Homo sapiens, UniProt O95819); details: read-out: % Retention on Solid Support
T14 construct: purchased DiscoveRx KINOMEscan
Summary of the method: as §1

TEC = molecular target: T15, TEC (Homo sapiens, UniProt P42680); details: read-out: % Retention on Solid Support
T15 construct: purchased DiscoveRx KINOMEscan
Summary of the method: as §1

SRC = molecular target: T16, SRC (Homo sapiens, UniProt P12931); details: read-out: % Retention on Solid Support
T16 construct: purchased DiscoveRx KINOMEscan
Summary of the method: as §1

TAK1 = molecular target: T17, TAK1 (Homo sapiens, UniProt O43318); details: read-out: % Retention on Solid Support
T17 construct: purchased DiscoveRx KINOMEscan
Summary of the method: as §1

CDKL3 = molecular target: T18, CDKL3 (Homo sapiens, UniProt Q8IVW4); details: read-out: % Retention on Solid Support
T18 construct: purchased DiscoveRx KINOMEscan
Summary of the method: as §1

IRAK3 = molecular target: T19, IRAK3 (Homo sapiens, UniProt Q9Y616); details: read-out: % Retention on Solid Support
T19 construct: purchased DiscoveRx KINOMEscan
Summary of the method: as §1

EPHA2 = molecular target: T20, EPHA2 (Homo sapiens, UniProt P29317); details: read-out: % Retention on Solid Support
T20 construct: purchased DiscoveRx KINOMEscan
Summary of the method: as §1

MST4 = molecular target: T21, MST4 (Homo sapiens, UniProt Q9P289); details: read-out: % Retention on Solid Support
T21 construct: purchased DiscoveRx KINOMEscan
Summary of the method: as §1

ERK8 = molecular target: T22, ERK8 (Homo sapiens, UniProt Q8TD08); details: read-out: % Retention on Solid Support
T22 construct: purchased DiscoveRx KINOMEscan
Summary of the method: as §1

MAP3K2 = molecular target: T23, MAP3K2 (Homo sapiens, UniProt Q9Y2U5); details: read-out: % Retention on Solid Support
T23 construct: purchased DiscoveRx KINOMEscan
Summary of the method: as §1

JNK3 = molecular target: T24, JNK3 (Homo sapiens, UniProt P53779)
T24 construct: purchased DiscoveRx KINOMEscan
Summary of the method: as §1

EGFR(G719C) = molecular target: T25, EGFR(G719C) (Homo sapiens, UniProt P00533, G719C)
T25 construct: purchased DiscoveRx KINOMEscan
Summary of the method: as §1

MAP3K15 = molecular target: T26, MAP3K15 (Homo sapiens, UniProt Q6ZN16); details: read-out: % Retention on Solid Support
T26 construct: purchased DiscoveRx KINOMEscan
Summary of the method: as §1

ULK3 = molecular target: T27, ULK3 (Homo sapiens, UniProt Q6PHR2)
T27 construct: purchased DiscoveRx KINOMEscan
Summary of the method: as §1

PIK3CG = molecular target: T28, PIK3CG (Homo sapiens, UniProt P48736); details: read-out: % Retention on Solid Support
T28 construct: purchased DiscoveRx KINOMEscan
Summary of the method: as §1

ACVR2A = molecular target: T29, ACVR2A (Homo sapiens, UniProt P27037); details: read-out: % Retention on Solid Support
T29 construct: purchased DiscoveRx KINOMEscan
Summary of the method: as §1

CAMKK1 = molecular target: T30, CAMKK1 (Homo sapiens, UniProt Q8N5S9); details: read-out: % Retention on Solid Support
T30 construct: purchased DiscoveRx KINOMEscan
Summary of the method: as §1

T16 sequence (P12931 whole entry): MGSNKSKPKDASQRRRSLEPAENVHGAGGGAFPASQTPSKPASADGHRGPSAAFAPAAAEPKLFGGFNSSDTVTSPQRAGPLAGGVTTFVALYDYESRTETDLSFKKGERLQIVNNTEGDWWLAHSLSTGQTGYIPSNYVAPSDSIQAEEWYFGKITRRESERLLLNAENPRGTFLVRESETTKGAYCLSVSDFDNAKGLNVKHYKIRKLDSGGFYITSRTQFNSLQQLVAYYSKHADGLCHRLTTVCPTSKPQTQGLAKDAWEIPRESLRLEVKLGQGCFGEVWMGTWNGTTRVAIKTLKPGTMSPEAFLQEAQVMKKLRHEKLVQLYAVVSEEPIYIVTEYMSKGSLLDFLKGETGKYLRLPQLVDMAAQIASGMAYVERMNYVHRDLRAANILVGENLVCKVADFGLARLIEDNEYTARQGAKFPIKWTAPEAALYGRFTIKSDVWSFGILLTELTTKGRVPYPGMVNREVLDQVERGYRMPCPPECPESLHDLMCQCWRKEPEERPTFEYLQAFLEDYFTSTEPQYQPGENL
T9 sequence (O15146 24-869): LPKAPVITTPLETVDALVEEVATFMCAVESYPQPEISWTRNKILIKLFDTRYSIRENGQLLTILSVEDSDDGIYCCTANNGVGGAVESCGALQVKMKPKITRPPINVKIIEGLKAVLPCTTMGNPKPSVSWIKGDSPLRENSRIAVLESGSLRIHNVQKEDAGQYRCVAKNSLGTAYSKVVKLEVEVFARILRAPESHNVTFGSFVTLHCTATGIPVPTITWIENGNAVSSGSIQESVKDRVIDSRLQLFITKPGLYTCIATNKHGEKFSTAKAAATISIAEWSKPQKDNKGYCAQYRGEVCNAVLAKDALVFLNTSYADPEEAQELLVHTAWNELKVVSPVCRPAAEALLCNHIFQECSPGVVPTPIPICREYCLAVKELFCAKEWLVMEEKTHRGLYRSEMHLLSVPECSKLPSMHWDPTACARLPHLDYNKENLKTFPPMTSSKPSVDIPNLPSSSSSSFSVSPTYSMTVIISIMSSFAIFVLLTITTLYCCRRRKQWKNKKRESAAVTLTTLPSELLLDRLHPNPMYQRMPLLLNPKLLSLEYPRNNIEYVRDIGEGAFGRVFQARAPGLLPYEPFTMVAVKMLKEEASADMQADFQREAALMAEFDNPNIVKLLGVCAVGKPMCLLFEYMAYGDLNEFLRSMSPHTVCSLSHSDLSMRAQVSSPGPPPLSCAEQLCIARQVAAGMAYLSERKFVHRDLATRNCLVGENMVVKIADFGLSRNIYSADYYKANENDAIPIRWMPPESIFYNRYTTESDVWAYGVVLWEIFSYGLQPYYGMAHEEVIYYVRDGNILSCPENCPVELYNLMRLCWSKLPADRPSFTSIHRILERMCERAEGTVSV
T28 sequence (P48736 whole entry): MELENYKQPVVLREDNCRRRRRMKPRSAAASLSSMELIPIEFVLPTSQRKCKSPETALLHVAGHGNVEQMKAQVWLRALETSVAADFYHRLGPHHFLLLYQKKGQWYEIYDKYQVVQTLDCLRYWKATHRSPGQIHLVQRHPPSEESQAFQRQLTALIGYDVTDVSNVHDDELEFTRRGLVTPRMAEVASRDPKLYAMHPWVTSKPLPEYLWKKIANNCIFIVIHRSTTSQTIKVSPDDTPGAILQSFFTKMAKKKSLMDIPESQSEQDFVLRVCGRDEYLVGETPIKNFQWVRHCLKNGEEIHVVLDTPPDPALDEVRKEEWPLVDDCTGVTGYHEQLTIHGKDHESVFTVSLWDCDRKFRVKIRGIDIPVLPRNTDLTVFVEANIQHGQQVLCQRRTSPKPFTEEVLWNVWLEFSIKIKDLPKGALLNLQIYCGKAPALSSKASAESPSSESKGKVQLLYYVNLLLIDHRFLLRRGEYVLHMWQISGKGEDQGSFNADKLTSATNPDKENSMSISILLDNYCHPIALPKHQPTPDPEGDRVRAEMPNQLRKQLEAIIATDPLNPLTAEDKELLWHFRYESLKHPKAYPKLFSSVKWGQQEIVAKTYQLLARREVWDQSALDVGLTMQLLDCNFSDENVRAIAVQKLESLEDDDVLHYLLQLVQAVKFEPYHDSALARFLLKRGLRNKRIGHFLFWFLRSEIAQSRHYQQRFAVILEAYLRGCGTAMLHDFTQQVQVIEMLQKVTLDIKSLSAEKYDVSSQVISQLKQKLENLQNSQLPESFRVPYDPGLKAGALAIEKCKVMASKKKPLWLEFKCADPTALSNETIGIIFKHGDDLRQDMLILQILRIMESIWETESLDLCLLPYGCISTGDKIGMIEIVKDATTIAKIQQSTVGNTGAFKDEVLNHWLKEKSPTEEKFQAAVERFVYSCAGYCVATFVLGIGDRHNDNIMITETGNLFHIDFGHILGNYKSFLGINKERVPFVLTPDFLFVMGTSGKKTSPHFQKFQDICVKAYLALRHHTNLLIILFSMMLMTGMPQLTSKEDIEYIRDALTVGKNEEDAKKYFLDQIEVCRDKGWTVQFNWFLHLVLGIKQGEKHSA
T15 sequence (P42680 whole entry): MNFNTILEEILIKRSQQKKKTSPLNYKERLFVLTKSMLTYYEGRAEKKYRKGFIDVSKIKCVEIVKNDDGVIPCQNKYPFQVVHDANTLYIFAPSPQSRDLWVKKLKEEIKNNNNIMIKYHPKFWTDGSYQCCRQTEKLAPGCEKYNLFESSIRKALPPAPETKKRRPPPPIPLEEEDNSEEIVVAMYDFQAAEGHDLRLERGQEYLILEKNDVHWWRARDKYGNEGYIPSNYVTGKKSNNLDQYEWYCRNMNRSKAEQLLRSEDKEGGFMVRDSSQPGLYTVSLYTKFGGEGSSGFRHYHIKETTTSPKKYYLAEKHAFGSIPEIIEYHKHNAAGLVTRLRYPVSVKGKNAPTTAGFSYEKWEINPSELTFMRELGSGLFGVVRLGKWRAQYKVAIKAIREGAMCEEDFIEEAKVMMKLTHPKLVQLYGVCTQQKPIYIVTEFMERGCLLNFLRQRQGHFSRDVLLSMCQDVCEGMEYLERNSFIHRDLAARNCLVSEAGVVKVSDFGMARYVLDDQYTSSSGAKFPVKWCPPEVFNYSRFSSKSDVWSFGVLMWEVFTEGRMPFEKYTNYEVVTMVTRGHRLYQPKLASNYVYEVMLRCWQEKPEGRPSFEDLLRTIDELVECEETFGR
T29 sequence (P27037 20-513): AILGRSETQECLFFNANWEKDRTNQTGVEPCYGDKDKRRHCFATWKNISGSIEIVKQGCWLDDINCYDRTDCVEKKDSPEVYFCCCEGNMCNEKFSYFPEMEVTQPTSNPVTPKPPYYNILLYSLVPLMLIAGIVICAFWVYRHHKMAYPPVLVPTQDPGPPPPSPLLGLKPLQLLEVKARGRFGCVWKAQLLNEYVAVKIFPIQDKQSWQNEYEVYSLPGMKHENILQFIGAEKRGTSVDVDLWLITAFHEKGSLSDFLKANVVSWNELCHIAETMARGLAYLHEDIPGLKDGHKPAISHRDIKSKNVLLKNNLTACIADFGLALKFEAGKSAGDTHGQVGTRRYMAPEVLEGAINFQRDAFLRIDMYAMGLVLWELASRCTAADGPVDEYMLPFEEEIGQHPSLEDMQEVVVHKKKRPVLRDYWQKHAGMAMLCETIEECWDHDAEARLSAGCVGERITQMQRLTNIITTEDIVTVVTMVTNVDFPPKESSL
T14 sequence (O95819 whole entry): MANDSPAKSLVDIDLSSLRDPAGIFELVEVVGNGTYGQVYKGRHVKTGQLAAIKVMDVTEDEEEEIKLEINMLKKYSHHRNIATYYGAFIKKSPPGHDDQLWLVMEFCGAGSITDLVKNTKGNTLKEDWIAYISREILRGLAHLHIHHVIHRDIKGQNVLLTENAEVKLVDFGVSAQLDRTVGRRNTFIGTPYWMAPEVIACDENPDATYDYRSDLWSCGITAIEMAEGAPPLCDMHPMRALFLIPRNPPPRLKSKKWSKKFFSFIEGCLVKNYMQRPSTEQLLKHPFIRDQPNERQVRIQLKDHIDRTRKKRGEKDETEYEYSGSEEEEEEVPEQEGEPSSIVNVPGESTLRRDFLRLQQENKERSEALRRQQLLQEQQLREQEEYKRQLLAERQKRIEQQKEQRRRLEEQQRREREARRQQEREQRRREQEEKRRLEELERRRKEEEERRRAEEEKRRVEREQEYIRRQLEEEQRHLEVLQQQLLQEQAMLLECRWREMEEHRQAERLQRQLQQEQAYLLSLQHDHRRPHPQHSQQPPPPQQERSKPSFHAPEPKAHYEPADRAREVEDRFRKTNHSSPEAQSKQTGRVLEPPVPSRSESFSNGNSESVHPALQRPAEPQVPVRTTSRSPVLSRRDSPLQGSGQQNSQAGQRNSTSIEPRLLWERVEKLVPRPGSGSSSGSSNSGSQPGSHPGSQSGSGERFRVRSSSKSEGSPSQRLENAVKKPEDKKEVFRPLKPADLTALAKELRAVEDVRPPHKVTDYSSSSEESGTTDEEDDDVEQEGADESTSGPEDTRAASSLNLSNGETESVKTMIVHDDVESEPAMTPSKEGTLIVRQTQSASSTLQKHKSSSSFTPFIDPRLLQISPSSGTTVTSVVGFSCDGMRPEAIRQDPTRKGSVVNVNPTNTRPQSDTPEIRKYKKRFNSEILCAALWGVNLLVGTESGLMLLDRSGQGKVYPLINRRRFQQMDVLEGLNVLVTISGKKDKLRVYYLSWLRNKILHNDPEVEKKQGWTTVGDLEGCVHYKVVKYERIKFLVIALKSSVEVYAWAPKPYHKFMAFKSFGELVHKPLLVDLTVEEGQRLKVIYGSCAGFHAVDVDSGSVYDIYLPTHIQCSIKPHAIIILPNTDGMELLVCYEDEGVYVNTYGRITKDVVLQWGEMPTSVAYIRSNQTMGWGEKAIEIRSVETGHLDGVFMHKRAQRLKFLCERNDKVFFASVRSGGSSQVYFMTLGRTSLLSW

## N[C@H]1CC[C@H](Nc2cc(-c3cccc(NCc4cccc(F)c4)n3)c(Cl)cn2)CC1 [i-CDK9, N2′-(trans-4-aminocyclohexyl)-5′-chloro-N6-(3-fluorobenzyl)-2,4′-bipyridine-2′,6-diamine]
CSNK1D; 1 µM i-CDK9
  remaining binding at 1 µM: 47%
CSNK1D; 10 µM i-CDK9
  remaining binding at 10 µM: 33%
EPHA8; 1 µM i-CDK9
  remaining binding at 1 µM: 100%
EPHA8; 10 µM i-CDK9
  remaining binding at 10 µM: 100%
CASK
  remaining binding at 1 µM: 100%
CDK4-cyclinD1
  remaining binding at 1 µM: 100%
TSSK1B; 1 µM i-CDK9
  remaining binding at 1 µM: 99%
TSSK1B; 10 µM i-CDK9
  remaining binding at 10 µM: 68%
LATS2; 1 µM i-CDK9
  % Retention on Solid Support: 100%
LATS2; 10 µM i-CDK9
  % Retention on Solid Support: 100%
MET; 1 µM i-CDK9
  % Retention on Solid Support: 94%
MET; 10 µM i-CDK9
  % Retention on Solid Support: 96%
DMPK; 1 µM i-CDK9
  remaining binding at 1 µM: 100%
DMPK; 10 µM i-CDK9
  remaining binding at 10 µM: 20%
MUSK; 1 µM i-CDK9
  remaining binding at 1 µM: 88%
MUSK; 10 µM i-CDK9
  remaining binding at 10 µM: 100%
PIK3CA(H1047L); 1 µM i-CDK9
  remaining binding at 1 µM: 99%
PIK3CA(H1047L); 10 µM i-CDK9
  remaining binding at 10 µM: 100%
DAPK3; 1 µM i-CDK9
  remaining binding at 1 µM: 90%
DAPK3; 10 µM i-CDK9
  remaining binding at 10 µM: 70%
JNK2; 1 µM i-CDK9
  % Retention on Solid Support: 98%
JNK2; 10 µM i-CDK9
  % Retention on Solid Support: 78%
ROS1; 1 µM i-CDK9
  remaining binding at 1 µM: 98%
ROS1; 10 µM i-CDK9
  remaining binding at 10 µM: 100%
MAP4K4; 1 µM i-CDK9
  remaining binding at 1 µM: 65%
MAP4K4; 10 µM i-CDK9
  remaining binding at 10 µM: 19%
TEC; 1 µM i-CDK9
  remaining binding at 1 µM: 99%
TEC; 10 µM i-CDK9
  remaining binding at 10 µM: 100%
SRC; 1 µM i-CDK9
  remaining binding at 1 µM: 87%
SRC; 10 µM i-CDK9
  remaining binding at 10 µM: 100%
TAK1; 1 µM i-CDK9
  remaining binding at 1 µM: 100%
TAK1; 10 µM i-CDK9
  remaining binding at 10 µM: 82%
CDKL3; 1 µM i-CDK9
  remaining binding at 1 µM: 44%
CDKL3; 10 µM i-CDK9
  remaining binding at 10 µM: 23%
IRAK3; 1 µM i-CDK9
  remaining binding at 1 µM: 100%
IRAK3; 10 µM i-CDK9
  remaining binding at 10 µM: 88%
EPHA2; 1 µM i-CDK9
  remaining binding at 1 µM: 100%
EPHA2; 10 µM i-CDK9
  remaining binding at 10 µM: 100%
MST4; 1 µM i-CDK9
  remaining binding at 1 µM: 100%
MST4; 10 µM i-CDK9
  remaining binding at 10 µM: 100%
ERK8; 1 µM i-CDK9
  remaining binding at 1 µM: 85%
ERK8; 10 µM i-CDK9
  remaining binding at 10 µM: 20%
MAP3K2; 1 µM i-CDK9
  remaining binding at 1 µM: 23%
MAP3K2; 10 µM i-CDK9
  remaining binding at 10 µM: 100%
JNK3; 1 µM i-CDK9
  % Retention on Solid Support: 94%
JNK3; 10 µM i-CDK9
  % Retention on Solid Support: 34%
EGFR(G719C); 1 µM i-CDK9
  % Retention on Solid Support: 86%
EGFR(G719C); 10 µM i-CDK9
  % Retention on Solid Support: 46%
MAP3K15; 1 µM i-CDK9
  remaining binding at 1 µM: 100%
MAP3K15; 10 µM i-CDK9
  remaining binding at 10 µM: 100%
ULK3; 1 µM i-CDK9
  % Retention on Solid Support: 94%
ULK3; 10 µM i-CDK9
  % Retention on Solid Support: 88%
PIK3CG; 1 µM i-CDK9
  remaining binding at 1 µM: 100%
PIK3CG; 10 µM i-CDK9
  remaining binding at 10 µM: 100%
ACVR2A; 1 µM i-CDK9
  remaining binding at 1 µM: 98%
ACVR2A; 10 µM i-CDK9
  remaining binding at 10 µM: 91%
CAMKK1; 1 µM i-CDK9
  remaining binding at 1 µM: 100%
CAMKK1; 10 µM i-CDK9
  remaining binding at 10 µM: 100%
